Measured values published in patent US20090054376A1, “BENZOFURAN DERIVATIVES WITH THERAPEUTIC ACTIVITIES” (Pharmos Corporation, priority 2005, published 2009).

Experiments:
[1] = test system: CB1 related cannabimimetic activity; test: Safety: body temperature, catalepsy, spontaneous locomotor activity, elevated plus maze, sensitivity to touch; type: in vivo, ICR male mice; settings: for adverse cannabimimetic activities in any of the parameters monitored: 2 mg/kg i.v.
Method: In the present study, impact of compounds of the invention on the central nervous system was measured by monitoring the body temperature, catalepsy and spontaneous locomotor activity of rodents. These activities are part of the Tetrad assays which are indicative, if all parameters are affected, of CB1 mediated activity. In addition, lack of CNS psychomimetic effect was assessed in the elevated plus maze model. Finally, sensitivity to touch was determined in order to evaluate peripheral CB1 related activity.
ICR male mice (average body weight 25 g, Harlan, Israel) were administered the compounds of the invention i.v. at a dose of 2 mg/kg and at a volume dose of 5 ml/kg. The psychoactive cannabinoid HU-210 was used as positive control at the 100-fold lower dose of 0.02 mg/kg i.v. The following measurements were made starting 15 minutes after compound administration. All tests were completed for each animal within approximately 10 minutes. Rectal temperature was monitored using a thermistor probe (YSI model 400, USA). Spontaneous locomotion was assessed using the open field methodology. The number of squares crossed by the animals were recorded and analyzed during a period of three minutes. At the end of the open field test, the animals were tested for catalepsy symptoms. This was carried out by gently forcing the animal to stand on its hind paws when its front paws are holding on an elevated beam. The time for the animal to step down of the beam was measured in seconds. A normal animal withdraws the beam immediately whereas cataleptic animal tend to stay on the beam. The longer the animal stays leaning on the beam, the more cataleptic the animal is. The behavior of the animals was then assessed in the elevated plus maze. The elevated plus maze consists of two open arms and two arms that are enclosed by high walls (arms 30×10 cm, wall height 20 cm). The elevated plus maze is usually elevated 80 cm above the floor. The mouse is placed on the maze head facing an open arm, and the time spent in the different compartments of the maze (open arms, closed arms and central area) are measured for the next 5 minutes. Results are expressed as percent of the time spent in the open arms, normal animals preferring to stay in the closed arms of the maze. Finally, animals were gently touched by an observer blinded for the treatment group and their sensitivity scored according to the following scale: 0 not sensitive, 1 sensitive and 2 highly sensitive. Results are expressed as average±SEM. At the end of the study, the animals were euthanized.

Human CB2 Receptor = target: T1, Human CB2 Receptor (Homo sapiens, UniProt P34972); test: [35S]GTPγS-binding assay, hCB2; type: biochemical; settings: GTPγS; for agonistic activity toward cannabinoid receptors (in words): hCB1 and hCB2
T1 construct: host or cells: Sf9 or HEK-293 cells (membranes)
Method: (§1) Functional activity of compounds of the invention toward the cannabinoid receptors was determined by stimulation of [^35S]-GTPγS binding using membranes from HEK-293 cells expressing the hCB1 receptor and membranes expressing the hCB2 receptor derived from either Sf9 (PerkinElmer) or from HEK-293 cells. Activities were compared to that of the known cannabinoid full agonist CP55940 (Alexis). The purpose of this experiment is to determine the potency of the compounds of the invention as agonists or antagonists toward each of the receptor tested.
(§2) [^35S]-GTPγS binding reactions were performed at 30° C. in 96-well plates containing 5-10 μg membrane protein suspended in 0.1 ml binding buffer [20 mM HEPES-NaOH, pH 7.4, 5 mM MgCl2, 100 mM NaCl, 0.2% (w/v) bovine serum albumin] supplemented with 50 μM GDP and 0.06 nM-10 μM of the compound being tested. Binding was initiated by the addition of [^35S]GTPγS (0.3 nM final concentration). Incubations were performed for 90 minutes and were terminated by filtration on GF/C filter plates (PerkinEimer). Filters were washed ten times with ice-cold wash buffer (20 mM HEPES-NaOH, pH 7.4, 10 mM sodium pyrophosphate). Non-specific binding was measured in the presence of 15 μM GTPγS.
(§3) Assays were performed in duplicates. Data was analyzed by plotting on the X axis the log concentration against percent of specific [^35S]GTPγS binding out of basal [^35S]GTPγS binding on the Y axis, non-linear regression is then performed using GraphPad Prism, version 3.0 (GraphPad, San Diego, Calif.) to calculate the EC50 and Emax of the compound. The EC50 value represents the concentration at which there is 50% [^35S]GTPγS binding and the Emax value the upper plateau of the curve.

Human CB1 Receptor = target: T2, Human CB1 Receptor (Homo sapiens, UniProt P21554); test: [35S]GTPγS-binding assay, hCB1; type: biochemical; settings: NB = no binding; for Emax: upper plateau of curve
T2 construct: expressed in transfected cells; host or cells: HEK-293 cells (membranes)
Method: as §1, §2, §3

[2] = test system: visceral pain writhing responses; test: Visceral pain, acetic acid induced writhing responses; type: in vivo, Male ICR mice; settings: Mus musculus, iv, single dose 2 mg/kg i.v., compared to untreated group; read-out: Percent Inhibition of Visceral Pain Writhing Responses
Method: Male ICR mice (average body weight 25 g, Harlan, Israel) were pretreated by i.v. injection at volume dose of 5 ml/kg of vehicle, control and test compounds at various doses. Other routes of administration were tested for selected compounds including i.m. or s.c. injections at volume dose of 2.5 ml/kg and p.o. gavage at volume dose of 5 ml/kg. Compounds were dissolved in CREMOPHOR®:Ethanol and diluted 1:20 in saline prior to injection or gavage. Compounds administered i.v. were injected fifteen minutes before pain induction, whereas compounds administered i.m., s.c. or p.o. were supplied thirty minutes before pain induction, unless otherwise indicated. Each treatment group, except for controls comprising at least 30 animals, was composed of at least 6 animals. Fifteen or thirty minutes after drug administration, depending on the route of administration, the mice were injected i.p. with 10 ml/kg of 0.6% acetic acid and the number of visceral pain related behaviors (writhing movements globally defined as WR, i.e. stretching, contractions of the abdomen accompanied by an elongation of the body and extension of the hind limbs) was counted over a period of 5 minutes, starting 5 minutes after the acetic acid administration. These visceral pain related behaviors were globally defined as writhing responses (WR). The results are expressed as mean number of writhing responses ±SEM. Data were analyzed using analysis of variance (ANOVA) followed by post-hoc Fisher test.

[3] = test system: carrageenan induced inflammatory pain and paw edema; test: Inflammatory pain and paw edema induced by carrageenan; type: in vivo, Male Sprague Dawley rats; settings: Rattus norvegicus, ip; 10 mg/kg i.p., 3 hours after carrageenan, reduction in paw swelling; read-out: Percent Inhibition of Inflammatory Pain Responses, Edema
Method: Male Sprague Dawley rats (average body weight 200 g, Harlan, Israel) were transiently sedated by placement on dry ice for the duration of the injections. Rats were injected subcutaneously, in the subplantar region of one (right) paw with 0.1 ml of 2% w/v λ Carrageenan in sterile saline. […] Test compounds were, unless otherwise stated, administered i.p. at initial single dose of 3, 10 or 20 mg/kg, and volume dose of 5 ml/kg, immediately after the carrageenan injection. Selected compounds were also tested p.o. following oral gavage. Vehicle and celecoxib treated animals were used as controls. Each treatment group comprised at least seven animals.
Before induction of inflammatory pain and three hours after injection, the animals reactions to pain stimuli were tested in two systems. The first stimulus was thermal and assessed by the Plantar Test according to Hargreaves, using Ugo Basile Model 7370. The scale was set to an intensity of 50 arbitrary units. The latency time till the animal lift a paw as a reaction to the thermal stimulus was recorded for both the inflamed and non-inflamed hind paws. The second stimulus was mechanical (tactile) and assessed using a Dynamic Plantar Sesthesiomether (Ugo Basile Model 73400-002). […] Finally, the impact on paw edema was assessed. Paw thickness was measured using a dial thickness gauge (Spring-dial, constant low pressure gauge, Mitutoyo, TG/L-1, 0.01 mm) and paw volume was measured using a plethysmometer (model #7150, Ugo Basile, Italy). At the end of the study, animals were euthanized.
The results are measured as the differences between the two hind paws at time 0 and 3 hours both as ALT, for the latency time in the thermal part of the study, and as ΔForce, for the mechanical part of the study. The paw volume is expressed as percent from vehicle treated animals. Results are expressed as mean±SEM for each treatment group and the differences among those groups are analyzed by analysis of variance (ANOVA) followed by post-hoc Tukey's test.
Results refer to i.p. treatment with 10 mg/kg. Results marked with one asterisk refer to a dose 3 mg/kg, whereas two asterisks refer to 20 mg/kg. Celecoxib is included as reference.

[4] = Human CB2 Receptor, NB = no binding
[5] = Human CB2 Receptor, upper plateau of curve, NB = no binding

T1 sequence (P34972 whole entry): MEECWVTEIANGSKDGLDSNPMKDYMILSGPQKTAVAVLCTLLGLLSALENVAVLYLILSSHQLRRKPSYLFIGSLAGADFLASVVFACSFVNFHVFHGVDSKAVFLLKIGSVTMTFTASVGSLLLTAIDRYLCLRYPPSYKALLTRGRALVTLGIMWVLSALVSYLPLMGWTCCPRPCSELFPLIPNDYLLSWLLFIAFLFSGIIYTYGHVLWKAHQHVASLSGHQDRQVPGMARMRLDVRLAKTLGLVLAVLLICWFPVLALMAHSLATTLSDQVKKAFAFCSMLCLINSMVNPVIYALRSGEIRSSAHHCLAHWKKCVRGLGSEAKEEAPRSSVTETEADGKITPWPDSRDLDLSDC
T2 sequence (P21554 whole entry): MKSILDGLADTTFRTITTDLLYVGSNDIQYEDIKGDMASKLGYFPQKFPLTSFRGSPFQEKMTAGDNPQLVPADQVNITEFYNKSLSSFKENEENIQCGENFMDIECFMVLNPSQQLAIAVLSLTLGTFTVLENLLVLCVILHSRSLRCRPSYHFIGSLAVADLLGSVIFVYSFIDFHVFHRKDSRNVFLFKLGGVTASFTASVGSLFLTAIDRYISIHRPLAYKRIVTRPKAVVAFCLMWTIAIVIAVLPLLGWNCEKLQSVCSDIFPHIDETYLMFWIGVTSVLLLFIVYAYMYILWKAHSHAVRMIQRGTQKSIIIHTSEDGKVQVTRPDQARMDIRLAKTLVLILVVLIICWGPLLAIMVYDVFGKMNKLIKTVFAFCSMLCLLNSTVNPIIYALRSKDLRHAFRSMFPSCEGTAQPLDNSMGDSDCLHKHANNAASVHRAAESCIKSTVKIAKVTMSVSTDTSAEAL

CCCCCCC(C)(C)c1cc(O)c2c(c1)OC(C)(C)[C@@H]1CC=C(CO)C[C@@H]21 [HU-210, reference compound]
less squares crossed ([1]; 0.02 mg/kg i.v.): more than 50% | number of squares crossed (spontaneous locomotor activity) ([1]; 0.02 mg/kg i.v., period of three minutes, vehicle 75.63±6.24): 32.33±10.21 | drop of rectal temperature ([1]; 0.02 mg/kg i.v., statistically significant): about 2 °C | sensitivity to touch, average score ([1]; 0.02 mg/kg i.v., scale 0 not sensitive, 1 sensitive, 2 highly sensitive): above 1 | rectal temperature ([1]; 0.02 mg/kg i.v., vehicle 38.88±0.11° C.): 36.73±0.29 °C | time spent in the open arms of the elevated plus maze ([1]; 0.02 mg/kg i.v., vehicle about 15%): ~41%

CCCCCCC(C)(C)c1cc(O)c2c(c1)OC1CCCCC(C(=O)O)C21 (stereo not drawn) [Compound C7S-31, 2-(1,1-Dimethylheptyl)-4-hydroxy-5,6,7,8,9,9a-hexahydro-4bH-10-oxa-benzo[α]azulen-5-carboxylic acid]
EC50 (Human CB2 Receptor; [4]): 641 nM | Emax (Human CB2 Receptor; [5]): 54% | EC50 (Human CB1 Receptor): > 10000 nM

CCCCCCC(C)(C)c1cc(O)c2c(c1)OC1C2CCC(C)(C)C1O (stereo not shown) [Compound C6S-8, 3-(1,1-dimethylheptyl)-7,7-dimethyl-5a,6,7,8,9,9a-hexahydro-dibenzofuran-1,6-diol]
adverse cannabimimetic activities in any of the parameters monitored [1]: None | inhibition in vivo at 2 mg/kg [2]: 37%

CCCCCCC(C)(C)c1cc(OC(=O)C=CC(=O)O)c2c(c1)OC1CC(C)(C)CCC21 (stereo not shown) [Compound C6S-37, But-2-enedioic acid mono-[3-(1,1-dimethylheptyl)-7,7-dimethyl-5a,6,7,8,9,9a-hexahydro-dibenzofuran-1-yl]ester]
EC50 (Human CB2 Receptor; [4]): 24 nM | Emax (Human CB2 Receptor; [5]): 44% | agonistic activity toward cannabinoid receptors (in words) (Human CB2 Receptor): agonists specific toward the CB2 receptor | EC50 (Human CB1 Receptor): 3970 nM | Emax (Human CB1 Receptor): 102%

CCCCCCC(C)(C)c1cc(OC)cc2oc3c(c12)CC(C)(C)CC3=O [Compound C6M-7, 9-(1,1-dimethylheptyl)-7-methoxy-2,2-dimethyl-2,3-dihydro-1H-dibenzofuran-4-one]
adverse cannabimimetic activities in any of the parameters monitored [1]: None | inhibition in vivo at 10 mg/kg [3]: 26%

CCCCCCC(C)(C)c1cc(O)c2c(c1)OC1C(O)CCCCC21 (single isomer, unassigned) [Compound C7S-30, 2-(,1-dimethylheptyl)-5,6,7,8,9,9a-hexahydro-4bH-10-oxa-benzo[α]azulen-4,9-diol]
EC50 (Human CB2 Receptor; [4]): 1030 nM | Emax (%) (Human CB2 Receptor; [5]): 66% | EC50 (Human CB1 Receptor): > 10000 nM

CCCCCCC(C)(C)c1ccc([C@@H]2C[C@H](O)CC[C@H]2CCCO)c(O)c1 [CP55940, reference compound]
Emax (Human CB2 Receptor; [5]): 30 to 60% | Emax (Human CB1 Receptor): 50 to 100%

CCCCCCC(C)(C)c1cc(O)c2c(c1)OC1C(=NO)CCCC21 (stereo not shown) [Compound C6S-27, 7-(1,1-Dimethylheptyl)-9-hydroxy-2,3,4a,9b-tetrahydro-1H-dibenzofuran-4-one oxime]
EC50 (Human CB2 Receptor; [4]): 5560 nM | Emax (Human CB2 Receptor; [5]): 64% | EC50 (Human CB1 Receptor): > 10000 nM

CC1(C)CCC2c3c(O)cc(C4(CCc5ccccc5)SCCS4)cc3OC2C1 (stereo not shown) [Compound C6S-38, 7,7-dimethyl-3-(2-phenethyl-[1,3]dithiolan-2-yl)-5a,6,7,8,9,9a-hexahydro-dibenzofuran-1-ol]
EC50 (Human CB2 Receptor; [4]): 184 nM | Emax (Human CB2 Receptor; [5]): 19% | EC50 (Human CB1 Receptor): > 10000 nM

CCCCCCC(C)(C)c1cc(O)c2c3c(oc2c1)CC(C)(C)CC3 [Compound C6M-10, 3-(1,1-Dimethylheptyl)-7,7-dimethyl-6,7,8,9-tetrahydro-dibenzofuran-1-ol]
EC50 (Human CB2 Receptor; [4]): 25 nM | Emax (Human CB2 Receptor; [5]): 72% | agonistic activity toward cannabinoid receptors (in words) (Human CB2 Receptor): agonists specific toward the CB2 receptor | EC50 (Human CB1 Receptor): 5300 nM | Emax (Human CB1 Receptor): 132%

CCCCCCC(C)(C)c1cc(OCC(=O)N(CC)CC)c2c(c1)OC1C(O)CCCCC21 (stereo not shown) [Compound C7S-17, 2-[2-(1,1-Dimethylheptyl)-9-hydroxy-5,6,7,8,9,9a-hexahydro-4bH-10-oxa-benzo[ ]azulen-4-yloxy]-N,N-diethyl-acetamide]
rectal temperature ([1]; 40 mg/kg i.v., 0.5 hr after injection): 37.84±0.62 °C | rectal temperature below controls ([1]; 40 mg/kg i.v., 0.5 hr after injection, not statistically significant): about 0.9 °C | rectal temperature (in words) ([1]; 40 mg/kg i.v., three hours after injection): back to baseline
